What was measured:
Assay in all cases: cells
[1] = test system: LAN-6; format: functional, cell-based, Homo sapiens; details: Homo sapiens, LAN-6;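 also: growth inhibition of LAN-6 cells, determined with a cell viability assay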
Description: SANGER: Inhibition of human LAN-6 cell growth in a cell viability assay.

[2] = test system: SCC-25; format: functional, cell-based, Homo sapiens; details: Homo sapiens, SCC-25;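 also: growth inhibition of SCC-25 cells, measured with a cell viability assay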
Description: SANGER: Inhibition of human SCC-25 cell growth in a cell viability assay.

[3] = test system: KP-N-YN; format: functional, cell-based; details: Homo sapiens;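 also: growth inhibition of KP-N-YN cells, read out with a cell viability assay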
Description: SANGER: Inhibition of human KP-N-YN cell growth in a cell viability assay.

[4] = test system: UACC-893; format: functional, cell-based, Homo sapiens; details: Homo sapiens, UACC-893
Description: SANGER: Inhibition of human UACC-893 cell growth in a cell viability assay.

[5] = test system: COLO-741; format: functional, cell-based, Homo sapiens; details: Homo sapiens, COLO-741
Description: SANGER: Inhibition of human COLO-741 cell growth in a cell viability assay.

[6] = test system: RCC10RGB; format: functional, cell-based, Homo sapiens; details: Homo sapiens, RCC10RGB;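 also: growth inhibition of human RCC10RGB cells, read out by a cell viability assay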
Description: SANGER: Inhibition of human RCC10RGB cell growth in a cell viability assay.

[7] = test system: RCM-1; format: functional, cell-based, Homo sapiens; details: Homo sapiens, RCM-1;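 also: growth inhibition of the RCM-1 line, determined with a cell viability readout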
Description: SANGER: Inhibition of human RCM-1 cell growth in a cell viability assay.

[8] = test system: SCC-9; format: functional, cell-based, Homo sapiens; details: Homo sapiens, SCC-9;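 also: Read-out is a cell viability assay, with values giving inhibition of cell growth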
Description: SANGER: Inhibition of human SCC-9 cell growth in a cell viability assay.

[9] = test system: NCI-H2347; format: functional, cell-based, Homo sapiens; details: Homo sapiens, NCI-H2347;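 also: growth inhibition of the cell line, read out with a cell viability assay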
Description: SANGER: Inhibition of human NCI-H2347 cell growth in a cell viability assay.

[10] = test system: SK-LU-1; format: functional, cell-based, Homo sapiens; details: Homo sapiens, SK-LU-1;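 also: cell viability assay measuring growth inhibition of human SK-LU-1 cells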
Description: SANGER: Inhibition of human SK-LU-1 cell growth in a cell viability assay.

[11] = test system: ONS-76; format: functional, cell-based, Homo sapiens; details: Homo sapiens, ONS-76;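 also: growth inhibition of human ONS-76 cells, read out with a cell viability assay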
Description: SANGER: Inhibition of human ONS-76 cell growth in a cell viability assay.

[12] = test system: NCI-H810; format: functional, cell-based, Homo sapiens; details: Homo sapiens, NCI-H810;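 also: IC50 reflects inhibition of cancer cell line growth, read out with a cell viability assay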
Description: SANGER: Inhibition of human NCI-H810 cell growth in a cell viability assay.

[13] = test system: NCI-H2405; format: functional, cell-based, Homo sapiens; details: Homo sapiens, NCI-H2405;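 also: growth inhibition of the human cell line, read out with a cell viability assay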
Description: SANGER: Inhibition of human NCI-H2405 cell growth in a cell viability assay.

[14] = test system: Hs-578T; format: functional, cell-based, Homo sapiens; details: Homo sapiens, Hs-578T
Description: SANGER: Inhibition of human Hs-578-T cell growth in a cell viability assay.

[15] = test system: D-502MG; format: functional, cell-based, Homo sapiens; details: Homo sapiens, D-502MG
Description: SANGER: Inhibition of human D-502MG cell growth in a cell viability assay.

[16] = test system: ALL-PO; format: functional, cell-based; details: Homo sapiens;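 also: growth inhibition of ALL-PO cells, read out by a cell viability assay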
Description: SANGER: Inhibition of human ALL-PO cell growth in a cell viability assay.

[17] = test system: Ca-Ski; format: functional, cell-based; details: Homo sapiens;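 also: cell viability assay measuring inhibition of Ca-Ski cell growth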
Description: SANGER: Inhibition of human Ca-Ski cell growth in a cell viability assay.

[18] = test system: GT3TKB; format: functional, cell-based, Homo sapiens; details: Homo sapiens, GT3TKB;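 also: growth inhibition of the cell line, read out with a cell viability assay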
Description: SANGER: Inhibition of human GT3TKB cell growth in a cell viability assay.

[19] = test system: GI-ME-N; format: functional, cell-based, Homo sapiens; details: Homo sapiens, GI-ME-N;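 also: growth inhibition of human GI-ME-N cells, read out with a cell viability assay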
Description: SANGER: Inhibition of human GI-ME-N cell growth in a cell viability assay.

[20] = test system: OE19; format: functional, cell-based, Homo sapiens; details: Homo sapiens, OE19;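 also: growth inhibition of OE19 cells, measured through a cell viability read-out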
Description: SANGER: Inhibition of human OE19 cell growth in a cell viability assay.

[21] = test system: RXF 393; format: functional, cell-based; details: Homo sapiens;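 also: growth inhibition of human RXF 393 cells, read out with a cell viability assay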
Description: SANGER: Inhibition of human RXF393 cell growth in a cell viability assay.

[22] = test system: HT1197; format: functional, cell-based, Homo sapiens, HT-1197; details: Homo sapiens, HT1197
Description: SANGER: Inhibition of human HT-1197 cell growth in a cell viability assay.

[23] = test system: MOLT-4; format: functional, cell-based; details: Homo sapiens;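 also: growth inhibition of MOLT-4 cells, determined with a cell viability readout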
Description: SANGER: Inhibition of human MOLT-4 cell growth in a cell viability assay.

[24] = test system: NCI-H358; format: functional, cell-based, Homo sapiens; details: Homo sapiens, NCI-H358;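 also: growth inhibition of NCI-H358 human cells, read out with a cell viability assay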
Description: SANGER: Inhibition of human NCI-H358 cell growth in a cell viability assay.

[25] = test system: RS4-11; format: functional, cell-based; details: Homo sapiens;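 also: growth inhibition of RS4-11 cells, read out by a cell viability assay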
Description: SANGER: Inhibition of human RS4-11 cell growth in a cell viability assay.

[26] = test system: HCC1569; format: functional, cell-based, Homo sapiens; details: Homo sapiens, HCC1569;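 also: growth inhibition of human HCC1569 cells, read out with a cell viability assay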
Description: SANGER: Inhibition of human HCC1569 cell growth in a cell viability assay.

[27] = test system: WM-115; format: functional, cell-based, Homo sapiens; details: Homo sapiens, WM-115
Description: SANGER: Inhibition of human WM-115 cell growth in a cell viability assay.

[28] = test system: BV-173; format: functional, cell-based; details: Homo sapiens
Description: SANGER: Inhibition of human BV-173 cell growth in a cell viability assay.

[29] = test system: KYSE-150 cell line; format: functional, cell-based, Homo sapiens; details: Homo sapiens, KYSE-150;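 also: growth inhibition of human KYSE-150 cells, read out with a cell viability assay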
Description: SANGER: Inhibition of human KYSE-150 cell growth in a cell viability assay.

[30] = test system: COR-L23; format: functional, cell-based, Homo sapiens; details: Homo sapiens, COR-L23;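 also: cell viability assay measuring how strongly compounds suppress growth of COR-L23 cells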
Description: SANGER: Inhibition of human COR-L23 cell growth in a cell viability assay.

[31] = test system: MDA-MB-361; format: functional, cell-based, Homo sapiens; details: Homo sapiens, MDA-MB-361
[32] = test system: HCC70; format: functional, cell-based, Homo sapiens; details: Homo sapiens, HCC70;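 also: cell viability assay measuring how strongly the compound suppresses proliferation of HCC70 cells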
Description: SANGER: Inhibition of human HCC70 cell growth in a cell viability assay.

[33] = test system: L-363; format: functional, cell-based; details: Homo sapiens
Description: SANGER: Inhibition of human L-363 cell growth in a cell viability assay.

[34] = test system: SK-MEL3; format: functional, cell-based, Homo sapiens, SK-MEL-3; details: Homo sapiens, SK-MEL3;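 also: growth inhibition of human SK-MEL-3 cells, read out with a cell viability assay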
Description: SANGER: Inhibition of human SK-MEL-3 cell growth in a cell viability assay.

[35] = test system: KYSE-450; format: functional, cell-based; details: Homo sapiens;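 also: cell growth inhibition measured by a viability assay in human KYSE-450 cells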
Description: SANGER: Inhibition of human KYSE-450 cell growth in a cell viability assay.

[36] = test system: LoVo; format: functional, cell-based; details: Homo sapiens;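 also: growth inhibition of human LoVo cells, read out with a cell viability assay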
Description: SANGER: Inhibition of human LoVo cell growth in a cell viability assay.

[37] = test system: BT-474; format: functional, cell-based, Homo sapiens; details: Homo sapiens, BT-474
Description: SANGER: Inhibition of human BT-474 cell growth in a cell viability assay.

[38] = test system: HEC-1; format: functional, cell-based, Homo sapiens; details: Homo sapiens, HEC-1;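 also: growth inhibition of the cell line, read out with a cell viability assay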
Description: SANGER: Inhibition of human HEC-1 cell growth in a cell viability assay.

[39] = test system: JVM-3; format: functional, cell-based; details: Homo sapiens;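 also: growth inhibition of human JVM-3 cells, read out with a cell viability assay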
Description: SANGER: Inhibition of human JVM-3 cell growth in a cell viability assay.

[40] = test system: TYK-nu; format: functional, cell-based, Homo sapiens; details: Homo sapiens, TYK-nu;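 also: growth inhibition of human TYK-nu cells, read out by a cell viability assay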
Description: SANGER: Inhibition of human TYK-nu cell growth in a cell viability assay.

[41] = test system: D-392MG; format: functional, cell-based, Homo sapiens; details: Homo sapiens, D-392MG
[42] = test system: HT-1080; format: functional, cell-based, Homo sapiens; details: Homo sapiens, HT-1080
Description: SANGER: Inhibition of human HT-1080 cell growth in a cell viability assay.

[43] = test system: GMS-10; format: functional, cell-based, Homo sapiens; details: Homo sapiens, GMS-10;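 also: growth inhibition of GMS-10 cells, read out as cell viability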
Description: SANGER: Inhibition of human GMS-10 cell growth in a cell viability assay.

[44] = test system: NCI-H2087; format: functional, cell-based, Homo sapiens; details: Homo sapiens, NCI-H2087;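 also: growth inhibition determined with a cell viability readout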
Description: SANGER: Inhibition of human NCI-H2087 cell growth in a cell viability assay.

[45] = test system: LU-134-A; format: functional, cell-based; details: Homo sapiens
Description: SANGER: Inhibition of human LU-134-A cell growth in a cell viability assay.

[46] = test system: MV4-11; format: functional, cell-based, MV-4-11; details: Homo sapiens;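 also: cell viability readout measuring growth inhibition of human MV-4-11 cells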
Description: SANGER: Inhibition of human MV-4-11 cell growth in a cell viability assay.

[47] = test system: EW-24; format: functional, cell-based; details: Homo sapiens;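 also: human EW-24 cancer cell line, growth inhibition read out via a cell viability assay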
Description: SANGER: Inhibition of human EW-24 cell growth in a cell viability assay.

[48] = test system: SW780; format: functional, cell-based, Homo sapiens; details: Homo sapiens, SW780;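 also: growth inhibition of the cells, read out with a cell viability assay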
Description: SANGER: Inhibition of human SW780 cell growth in a cell viability assay.

[49] = test system: KYSE-140; format: functional, cell-based, Homo sapiens; details: Homo sapiens, KYSE-140;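 also: cell viability assay measuring growth inhibition in human KYSE-140 cells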
Description: SANGER: Inhibition of human KYSE-140 cell growth in a cell viability assay.

[50] = test system: CCRF-CEM; format: functional, cell-based; details: Homo sapiens;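 also: inhibition of CCRF-CEM cell growth, measured by a cell viability assay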
Description: SANGER: Inhibition of human CCRF-CEM cell growth in a cell viability assay.

[51] = test system: MZ7-mel; format: functional, cell-based, Homo sapiens; details: Homo sapiens, MZ7-mel;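 also: growth inhibition of human MZ7-mel cells, measured by a cell viability assay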
Description: SANGER: Inhibition of human MZ7-mel cell growth in a cell viability assay.

SMILES: O=C(c1cc(Cc2n[nH]c(=O)c3ccccc23)ccc1F)N1CCN(C(=O)C2CC2)CC1 [OLAPARIB]
- IC50 [1]: > 5 µM
- IC50 [2]: > 5 µM
- IC50 [3]: > 5 µM
- IC50 [4]: > 5 µM
- IC50 [5]: > 5 µM
- IC50 [6]: > 5 µM
- IC50 [7]: > 5 µM
- IC50 [8]: > 5 µM
- IC50 [9]: > 5 µM
- IC50 [10]: > 5 µM
- IC50 [11]: > 5 µM
- IC50 [12]: > 5 µM
- IC50 [13]: > 5 µM
- IC50 [14]: > 5 µM
- IC50 [15]: > 5 µM
- IC50 [16]: > 5 µM
- IC50 [17]: > 5 µM
- IC50 [18]: > 5 µM
- IC50 [19]: > 5 µM
- IC50 [20]: > 5 µM
- IC50 [21]: > 5 µM
- IC50 [22]: > 5 µM
- IC50 [23]: > 5 µM
- IC50 [24]: > 5 µM
- IC50 [25]: > 5 µM
- IC50 [26]: > 5 µM
- IC50 [27]: > 5 µM
- IC50 [28]: > 5 µM
- IC50 [29]: > 5 µM
- IC50 [30]: > 5 µM
- IC50 [31]: > 5 µM
- IC50 [32]: > 5 µM
- IC50 [33]: > 5 µM
- IC50 [34]: > 5 µM
- IC50 [35]: > 5 µM
- IC50 [36]: > 5 µM
- IC50 [37]: > 5 µM
- IC50 [38]: > 5 µM
- IC50 [39]: > 5 µM
- IC50 [40]: > 5 µM
- IC50 [41]: > 5 µM
- IC50 [42]: > 5 µM
- IC50 [43]: > 5 µM
- IC50 [44]: > 5 µM
- IC50 [45]: > 5 µM
- IC50 [46]: 4.13 µM
- IC50 [47]: > 5 µM
- IC50 [48]: > 5 µM
- IC50 [49]: > 5 µM
- IC50 [50]: > 5 µM
- IC50 [51]: > 5 µM

SMILES: Cn1cc(C2=C(c3ccc(Cl)cc3Cl)C(=O)NC2=O)c2ccccc21 [SB-216763]
- IC50 [1]: > 10 µM
- IC50 [2]: > 10 µM
- IC50 [3]: > 10 µM
- IC50 [4]: > 10 µM
- IC50 [5]: > 10 µM
- IC50 [6]: > 10 µM
- IC50 [7]: > 10 µM
- IC50 [8]: > 10 µM
- IC50 [9]: > 10 µM
- IC50 [10]: > 10 µM
- IC50 [11]: > 10 µM
- IC50 [12]: > 10 µM
- IC50 [13]: > 10 µM
- IC50 [14]: > 10 µM
- IC50 [15]: > 10 µM
- IC50 [16]: > 10 µM
- IC50 [17]: > 10 µM
- IC50 [18]: > 10 µM
- IC50 [19]: > 10 µM
- IC50 [20]: > 10 µM
- IC50 [21]: > 10 µM
- IC50 [22]: > 10 µM
- IC50 [23]: > 10 µM
- IC50 [24]: > 10 µM
- IC50 [25]: 8.24 µM
- IC50 [26]: > 10 µM
- IC50 [27]: > 10 µM
- IC50 [28]: > 10 µM
- IC50 [29]: > 10 µM
- IC50 [30]: > 10 µM
- IC50 [31]: > 10 µM
- IC50 [32]: > 10 µM
- IC50 [33]: > 10 µM
- IC50 [34]: > 10 µM
- IC50 [35]: > 10 µM
- IC50 [36]: > 10 µM
- IC50 [37]: > 10 µM
- IC50 [38]: > 10 µM
- IC50 [39]: > 10 µM
- IC50 [40]: > 10 µM
- IC50 [41]: > 10 µM
- IC50 [42]: > 10 µM
- IC50 [43]: > 10 µM
- IC50 [44]: > 10 µM
- IC50 [45]: > 10 µM
- IC50 [46]: 2.7 µM
- IC50 [47]: > 10 µM
- IC50 [48]: > 10 µM
- IC50 [49]: > 10 µM
- IC50 [50]: > 10 µM
- IC50 [51]: > 10 µM

— ChEMBL document CHEMBL1201861, “Genomics of Drug Sensitity in Cancer screening data, Wellcome Trust Sanger Institute”
